Reference: patent US11807644B2 (PMV Pharmaceuticals, Inc., priority 2020, dated 2023)

These compounds were tested against T1, recombinant His-tag Y220C p53 DBD protein (Homo sapiens, UniProt P04637, Y220C) (assay: In vitro DNA binding activity assay (TR-FRET): binding of His-tag Y220C p53 DBD to biotin-labeled consensus DNA). Conditions: SC150 = concentration to increase DNA binding by […], His-tag Y220C p53 DBD, biotin-labeled consensus DNA.
T1 construct: recombinant His-tag Y220C p53 DBD protein (amino acids #˜94-312)
Type: biochemical

SMILES | Y220C SC150 (μM)
CN1CC[C@@H](Nc2cccc3c2cc(-c2cc(CNC(=O)c4csc(C(C)(C)O)c4)on2)n3CC(F)(F)F)[C@@H](F)C1 [Compound 555B, N-{[3-(4-{[(3S,4R)-3-fluoro-1-methylpiperidin-4-yl]amino}-1-(2,2,2-trifluoroethyl)-1H-indol-2-yl)-1,2-oxazol-5-yl]methyl}-5-(2-hydroxypropan-2-yl)thiophene-3-carboxamide] | * (* = 0 μM ≤ SC150 < 0.1 μM)
CN1CC[C@@H](Nc2cccc3c2cc(-c2noc(CNC(=O)c4cncn4CCF)n2)n3CC(F)(F)F)[C@@H](F)C1 [Compound 556B, N-{[3-(4-{[(3S,4R)-3-fluoro-1-methylpiperidin-4-yl]amino}-1-(2,2,2-trifluoroethyl)-1H-indol-2-yl)-1,2,4-oxadiazol-5-yl]methyl}-1-(2-fluoroethyl)-1H-imidazole-5-carboxamide] | * (* = 0 μM ≤ SC150 < 0.1 μM)
CN1CC[C@@H](Nc2cccc3c2cc(-c2noc(C(=O)NCC4CCOCC4)n2)n3CC(F)(F)F)[C@@H](F)C1 [Compound 558B, 3-(4-{[(3S,4R)-3-fluoro-1-methylpiperidin-4-yl]amino}-1-(2,2,2-trifluoroethyl)-1H-indol-2-yl)-N-[(oxan-4-yl)methyl]-1,2,4-oxadiazole-5-carboxamide] | * (* = 0 μM ≤ SC150 < 0.1 μM)

Further lines, results first:

Y220C SC150 (μM) | SMILES
* (* = 0 μM ≤ SC150 < 0.1 μM) | CN1CC[C@@H](Nc2cccc3c2cc(-c2cc(CNC(=O)c4cnn(C(C)(C)C)c4)on2)n3CC(F)(F)F)[C@@H](F)C1 [Compound 554B, 1-tert-butyl-N-{[3-(4-{[(3S,4R)-3-fluoro-1-methylpiperidin-4-yl]amino}-1-(2,2,2-trifluoroethyl)-1H-indol-2-yl)-1,2-oxazol-5-yl]methyl}-1H-pyrazole-4-carboxamide]
* (* = 0 μM ≤ SC150 < 0.1 μM) | CN1CC[C@@H](Nc2cccc3c2cc(-c2noc(CNC(=O)c4ccc(N(C)C)nc4)n2)n3CC(F)(F)F)[C@@H](F)C1 [Compound 557B, 6-(dimethylamino)-N-{[3-(4-{[(3S,4R)-3-fluoro-1-methylpiperidin-4-yl]amino}-1-(2,2,2-trifluoroethyl)-1H-indol-2-yl)-1,2,4-oxadiazol-5-yl]methyl}pyridine-3-carboxamide]
